The text below walks through data of US20230241226A1, “COMPOUNDS FOR TARGETED DEGRADATION OF CARRIER PROTEINS AND USES THEREOF” (CeMM - Forschungszentrum für Molekulare Medizin GmbH, priority 2019, published 2023).

SMILES strings stand for the structures.

Holding throughout (format): cell-based
Test [1] concerns the target T1, dTAG-HA SLC38A2 (Homo sapiens, UniProt Q96QD8+Q96SW2).
T1 construct: expressed in transfected cells
Put plainly: Targeted degradation of dTAG-tagged SLC38A2 (western blot). Particulars: HAP1, 0.5 µM; for time to degradation of the glycosylated form (upper band) of dTAG-HA SLC38A2: time course. The procedure: (§1) (A) HAP1 cells expressing dTAG-HA SLC38A9, 38A2, or 38A1 were treated with 0.5 µM dTAG13 for 16, 24 or 48 hours.
(§2) SLC1A5, SLC2A1, SLC2A3, SLC16A1, SLC38A1, SLC38A2 were obtained as gateway-compatible pENTR/pDONR vectors from the Harvard PlasmID Repository. SLC39A7 was obtained from Dharmacon, GE Healthcare. The following vectors were synthesized by Genescript: SLC4A4, SLC7A3, SLC38A9, SLC25A1, SLC9A1, SLC9A2, SLC9A3, SLC9A4, SLC9A5, SLC9A6, SLC9A7, SLC9A8, and SLC9B2. SLC30A9, SLC33A1, SLC35B2, SLC25A26, and MTCH2 were a gift from the RESOLUTE consortium. cDNAs were transferred into gateway-compatible lentiviral expression vectors: pLX305 dTAG vectors (Addgene #91797/8) or pRRL Strep-HA (described previously43, EF1a promotor driven expression) using LR recombination (ThermoFisher Scientific). For the generation of lentiviral stable overexpression cells, HEK293T cells were transfected with psPAX2 (Addgene #12260) and pMD2.G (Addgene #12259) and expression vectors using polyethylenimine (PEI). 12 hours post transfection medium was replaced with fresh medium. The medium, containing the virus, was harvested 48 hours later, filtered (0.45 µm), supplemented with 5 µg/ml Polybrene (Hexadimethrine bromide, Sigma) and added to target cells. […]
(§3) For immunoblotting, whole cell extracts were prepared using RIPA lysis buffer (25 mM Tris/HCl pH 7.6, 150 mM NaCl, 1% NP-40, 1% sodium deoxycholate, 0.1% SDS, EDTA-free protease inhibitor (Roche) and phosphatase inhibitors 2+3 (Sigma- Aldrich)). […] Protein extracts were quantified and normalized using the BCA assay (Thermo Scientific). […]
(§4) SLCs were ectopically expressed as fusions to a mutated FKBP domain, also known as the dTAG system. […] Each of the tested SLCs was stably expressed in HAP1 cells, and subcellular localization was assessed by immunofluorescence microscopy (FIG. 1B). […]
For orientation: Immunoblotting shows a protein as a band on a membrane.

Test [2] addresses T2, dTAG-HA SLC2A3 (Homo sapiens, UniProt P11169+Q96SW2).
T2 construct: expressed in transfected cells
Put plainly: Targeted degradation of dTAG-tagged SLC2A3 (western blot). The method, then: (§5) (C)HAP1 cells expressing dTAG-HA SLC1A5, 2A3, 30A9, 35B2, MTCH2, and 33A1 were treated for 24 hours with 0.5 µM of dTAG7 or dTAG13, as indicated. HAP1 cells expressing dTAG-HA SLC2A1 and 16A1 were treated for 24 hrs with 0.5 µM of dTAG7. HAP1 cell lines expressing dTAG-HA SLC39A7, dTAG-HA SLC4A4, and SLC7A3-dTAG-HA were treated for 48 hrs with 0.5 µM of dTAG13.
as §2, §3
(§6) SLCs were ectopically expressed as fusions to a mutated FKBP domain, also known as the dTAG system. […]

For test [3], the target named is T3, dTAG-HA SLC38A9 (Homo sapiens, UniProt Q8NBW4+Q96SW2).
T3 construct: expressed in transfected cells
T3 sequence (Q8NBW4 with tags, fused parts or gaps): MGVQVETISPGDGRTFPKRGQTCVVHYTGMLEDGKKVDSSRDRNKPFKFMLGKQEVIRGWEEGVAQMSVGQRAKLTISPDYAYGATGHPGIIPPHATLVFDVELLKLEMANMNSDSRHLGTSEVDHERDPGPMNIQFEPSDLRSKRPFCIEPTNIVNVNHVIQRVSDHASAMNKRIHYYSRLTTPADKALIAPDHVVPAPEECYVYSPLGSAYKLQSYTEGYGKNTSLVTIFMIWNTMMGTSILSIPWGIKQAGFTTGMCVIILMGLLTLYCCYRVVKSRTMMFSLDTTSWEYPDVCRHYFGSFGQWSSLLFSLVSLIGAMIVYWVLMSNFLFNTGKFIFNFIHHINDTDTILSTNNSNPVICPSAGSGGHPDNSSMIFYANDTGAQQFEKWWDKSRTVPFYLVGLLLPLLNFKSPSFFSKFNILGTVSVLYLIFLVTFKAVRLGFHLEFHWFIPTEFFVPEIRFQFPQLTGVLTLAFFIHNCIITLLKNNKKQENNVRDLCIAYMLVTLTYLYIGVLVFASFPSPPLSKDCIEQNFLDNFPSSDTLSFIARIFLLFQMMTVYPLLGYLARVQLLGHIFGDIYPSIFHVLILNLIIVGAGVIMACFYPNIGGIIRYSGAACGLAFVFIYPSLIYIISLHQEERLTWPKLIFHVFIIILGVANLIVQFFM
T3 sequence (Q96SW2 whole entry): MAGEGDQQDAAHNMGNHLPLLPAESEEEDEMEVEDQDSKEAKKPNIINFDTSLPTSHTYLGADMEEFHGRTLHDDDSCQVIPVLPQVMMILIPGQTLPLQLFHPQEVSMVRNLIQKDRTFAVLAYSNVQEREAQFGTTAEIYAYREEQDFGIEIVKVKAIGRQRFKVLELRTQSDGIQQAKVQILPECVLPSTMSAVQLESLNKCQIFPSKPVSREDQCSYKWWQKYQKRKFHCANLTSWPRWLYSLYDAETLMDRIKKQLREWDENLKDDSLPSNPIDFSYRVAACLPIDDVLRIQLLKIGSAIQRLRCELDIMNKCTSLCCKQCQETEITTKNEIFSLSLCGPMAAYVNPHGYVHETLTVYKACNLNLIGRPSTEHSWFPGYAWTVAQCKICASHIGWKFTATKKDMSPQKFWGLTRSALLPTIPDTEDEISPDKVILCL
T3 sequence (Q16531 whole entry partner): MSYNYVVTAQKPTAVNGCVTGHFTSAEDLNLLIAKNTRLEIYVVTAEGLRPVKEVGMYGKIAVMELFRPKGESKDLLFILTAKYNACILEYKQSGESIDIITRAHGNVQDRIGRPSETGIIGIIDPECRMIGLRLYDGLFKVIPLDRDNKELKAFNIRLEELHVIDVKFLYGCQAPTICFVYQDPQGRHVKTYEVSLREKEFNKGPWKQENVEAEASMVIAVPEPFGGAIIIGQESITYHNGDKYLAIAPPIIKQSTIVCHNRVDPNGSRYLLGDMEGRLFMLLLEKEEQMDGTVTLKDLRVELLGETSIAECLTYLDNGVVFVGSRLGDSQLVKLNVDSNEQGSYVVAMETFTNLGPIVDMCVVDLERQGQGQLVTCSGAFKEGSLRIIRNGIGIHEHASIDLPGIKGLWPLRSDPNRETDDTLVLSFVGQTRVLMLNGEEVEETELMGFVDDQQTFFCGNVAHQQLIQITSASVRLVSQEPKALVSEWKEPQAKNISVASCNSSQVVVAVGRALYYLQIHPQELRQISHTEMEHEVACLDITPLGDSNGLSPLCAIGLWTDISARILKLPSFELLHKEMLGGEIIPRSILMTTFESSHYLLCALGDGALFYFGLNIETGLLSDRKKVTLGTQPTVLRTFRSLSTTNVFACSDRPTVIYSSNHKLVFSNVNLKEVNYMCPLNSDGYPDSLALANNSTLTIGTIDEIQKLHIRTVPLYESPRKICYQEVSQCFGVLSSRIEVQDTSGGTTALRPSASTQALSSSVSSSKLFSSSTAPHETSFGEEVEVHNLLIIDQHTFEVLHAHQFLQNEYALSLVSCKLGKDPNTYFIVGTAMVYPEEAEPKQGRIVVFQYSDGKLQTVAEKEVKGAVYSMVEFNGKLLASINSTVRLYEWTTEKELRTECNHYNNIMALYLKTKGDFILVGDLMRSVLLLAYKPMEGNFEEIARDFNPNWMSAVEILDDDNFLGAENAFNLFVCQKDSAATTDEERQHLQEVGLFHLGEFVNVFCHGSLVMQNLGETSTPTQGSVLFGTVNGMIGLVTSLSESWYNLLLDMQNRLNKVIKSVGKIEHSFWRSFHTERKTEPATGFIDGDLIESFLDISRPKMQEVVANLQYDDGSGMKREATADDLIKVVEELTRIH
Put plainly: Targeted degradation of dTAG-tagged SLC38A9 (western blot). The procedure:
as §1
SLC1A5, SLC2A1, SLC2A3, SLC16A1, SLC38A1, SLC38A2 were obtained as gateway-compatible pENTR/pDONR vectors from the Harvard PlasmID Repository. SLC39A7 was obtained from Dharmacon, GE Healthcare. The following vectors were synthesized by Genescript: SLC4A4, SLC7A3, SLC38A9, SLC25A1, SLC9A1, SLC9A2, SLC9A3, SLC9A4, SLC9A5, SLC9A6, SLC9A7, SLC9A8, and SLC9B2. SLC30A9, SLC33A1, SLC35B2, SLC25A26, and MTCH2 were a gift from the RESOLUTE consortium. cDNAs were transferred into gateway-compatible lentiviral expression vectors: pLX305 dTAG vectors (Addgene #91797/8) or pRRL Strep-HA (described previously43, EF1a promotor driven expression) using LR recombination (ThermoFisher Scientific). […]
as §3, §4

The target of test [4] is T4, dTAG-HA SLC30A9 (Homo sapiens, UniProt Q6PML9+Q96SW2).
T4 construct: expressed in transfected cells
T4 sequence (Q6PML9 with tags, fused parts or gaps): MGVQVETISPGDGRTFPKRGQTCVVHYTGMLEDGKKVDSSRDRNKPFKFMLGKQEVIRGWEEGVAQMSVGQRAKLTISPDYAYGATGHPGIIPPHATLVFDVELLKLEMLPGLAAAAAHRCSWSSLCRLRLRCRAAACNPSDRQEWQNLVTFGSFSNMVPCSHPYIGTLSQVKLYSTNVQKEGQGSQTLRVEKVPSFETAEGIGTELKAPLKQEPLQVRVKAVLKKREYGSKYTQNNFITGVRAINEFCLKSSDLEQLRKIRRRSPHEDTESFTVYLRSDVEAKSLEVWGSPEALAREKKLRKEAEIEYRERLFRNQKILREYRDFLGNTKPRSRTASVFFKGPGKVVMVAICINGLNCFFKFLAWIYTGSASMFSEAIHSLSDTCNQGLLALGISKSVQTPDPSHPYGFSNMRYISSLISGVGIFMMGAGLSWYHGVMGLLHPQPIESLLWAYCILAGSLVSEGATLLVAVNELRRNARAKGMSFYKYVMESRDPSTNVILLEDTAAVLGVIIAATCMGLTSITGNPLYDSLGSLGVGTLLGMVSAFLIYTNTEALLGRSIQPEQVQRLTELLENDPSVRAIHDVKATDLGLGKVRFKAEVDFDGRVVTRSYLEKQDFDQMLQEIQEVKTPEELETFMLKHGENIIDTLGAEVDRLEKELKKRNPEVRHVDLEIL
T4 sequence (Q96SW2 whole entry): as the sequence (Q96SW2 whole entry) above
T4 sequence (Q16531 whole entry partner): as the sequence (Q16531 whole entry partner) above
Put plainly: Targeted degradation of dTAG-tagged SLC30A9 (western blot). The following applies: HAP1, 0.5 µM. The procedure: as §5
(§7) SLC1A5, SLC2A1, SLC2A3, SLC16A1, SLC38A1, SLC38A2 were obtained as gateway-compatible pENTR/pDONR vectors from the Harvard PlasmID Repository. SLC39A7 was obtained from Dharmacon, GE Healthcare. The following vectors were synthesized by Genescript: SLC4A4, SLC7A3, SLC38A9, SLC25A1, SLC9A1, SLC9A2, SLC9A3, SLC9A4, SLC9A5, SLC9A6, SLC9A7, SLC9A8, and SLC9B2. […]
as §3, §6

Test [5] deals with T5, dTAG-HA SLC39A7 (Homo sapiens, UniProt Q92504+Q96SW2).
T5 construct: expressed in transfected cells
Put plainly: Targeted degradation of dTAG-tagged SLC39A7 (western blot). Particulars: HAP1, 0.5 µM, 24, 48 or 72 hours. The procedure:
as §5, §7, §3, §6

T2 sequence (P11169 with tags, fused parts or gaps): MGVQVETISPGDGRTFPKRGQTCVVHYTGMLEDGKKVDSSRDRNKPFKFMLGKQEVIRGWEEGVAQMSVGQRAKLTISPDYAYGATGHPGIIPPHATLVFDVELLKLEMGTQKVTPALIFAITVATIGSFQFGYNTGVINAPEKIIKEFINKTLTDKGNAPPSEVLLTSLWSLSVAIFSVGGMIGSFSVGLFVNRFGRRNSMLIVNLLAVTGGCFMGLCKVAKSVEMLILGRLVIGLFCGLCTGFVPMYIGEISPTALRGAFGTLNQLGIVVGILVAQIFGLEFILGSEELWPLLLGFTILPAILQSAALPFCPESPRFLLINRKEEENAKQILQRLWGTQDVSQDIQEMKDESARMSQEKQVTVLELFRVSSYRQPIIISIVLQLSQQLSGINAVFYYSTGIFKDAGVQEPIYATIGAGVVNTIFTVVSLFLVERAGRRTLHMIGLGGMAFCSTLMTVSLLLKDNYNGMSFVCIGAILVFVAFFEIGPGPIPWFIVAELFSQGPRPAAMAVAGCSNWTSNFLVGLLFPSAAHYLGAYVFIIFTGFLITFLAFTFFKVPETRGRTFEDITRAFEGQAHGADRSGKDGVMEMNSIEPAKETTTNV
T2 sequence (Q96SW2 whole entry): as the sequence (Q96SW2 whole entry) above
T2 sequence (Q16531 whole entry partner): as the sequence (Q16531 whole entry partner) above
T1 sequence (Q96QD8 with tags, fused parts or gaps): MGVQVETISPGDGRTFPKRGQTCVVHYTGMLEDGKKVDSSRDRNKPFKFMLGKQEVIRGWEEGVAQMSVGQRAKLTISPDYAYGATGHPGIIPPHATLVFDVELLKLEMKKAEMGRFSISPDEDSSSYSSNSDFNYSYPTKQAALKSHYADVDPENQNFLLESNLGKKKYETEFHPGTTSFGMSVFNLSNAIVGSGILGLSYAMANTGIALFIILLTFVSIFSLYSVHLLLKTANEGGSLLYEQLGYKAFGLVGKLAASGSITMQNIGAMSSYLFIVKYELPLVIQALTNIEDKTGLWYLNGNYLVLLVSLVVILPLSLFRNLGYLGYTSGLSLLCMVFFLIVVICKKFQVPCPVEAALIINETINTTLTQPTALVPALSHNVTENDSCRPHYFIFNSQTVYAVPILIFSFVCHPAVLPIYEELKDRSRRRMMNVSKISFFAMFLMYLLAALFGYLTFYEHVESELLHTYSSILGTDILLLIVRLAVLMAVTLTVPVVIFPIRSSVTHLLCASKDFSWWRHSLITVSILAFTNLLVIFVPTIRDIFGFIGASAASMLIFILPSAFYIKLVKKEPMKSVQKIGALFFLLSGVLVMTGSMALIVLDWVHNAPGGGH
T1 sequence (Q96SW2 whole entry): as the sequence (Q96SW2 whole entry) above
T1 sequence (Q16531 whole entry partner): as the sequence (Q16531 whole entry partner) above

On to `CC[C@H](C(=O)N1CCCC[C@H]1C(=O)O[C@H](CCc1ccc(OC)c(OC)c1)c1ccccc1OCC(=O)NCCCCCCOc1cccc2c1C(=O)N(C1CCC(=O)NC1=O)C2=O)c1cc(OC)c(OC)c(OC)c1` (stereo partly shown) [dTAG13], for which the “time to degradation of the glycosylated form (upper band) of dTAG-HA SLC38A2” value in test [1] was “within five hours”. The “degradation of the target SLC” value is “Near-complete degradation” in test [1] (dTAG-HA SLC38A2, 16, 24 or 48 hours) and “Near-complete degradation” in test [3] (HAP1, 0.5 µM, 16, 24 or 48 hours). In addition, the “degradation of dTAG-HA SLC2A3” value in test [2] (HAP1, LS180 and HCT15 cells, 0.5 µM, 72 hours) is “completely degraded”. For the same molecule, in test [2] (two HAP1 cell lines, 24 hours), the “degradation of SLC2A3 tagged on the N- or C-terminus with dTAG-HA” value was “degraded in both”.

Turning to `CC[C@H](C(=O)N1CCCC[C@H]1C(=O)O[C@H](CCc1ccc(OC)c(OC)c1)c1ccccc1OCC(=O)NCCCOCCOCCOCCCNC(=O)COc1cccc2c1C(=O)N(C1CCC(=O)NC1=O)C2=O)c1cc(OC)c(OC)c(OC)c1` (stereo partly shown) [dTAG7], the “initiation of degradation (time course)” value in test [4] was not above 6 h; in test [2] (HAP1, dTAG-HA SLC2A3, 0.5 µM), not above 6 h. Moreover, the “reversibility of degradation of the target SLC” value is on record as “reversible degradation” in test [5] and “reversible degradation” in test [3] (HAP1, 0.5 µM, 24, 48 or 72 hours). The “time to degradation of the glycosylated form (upper band) of dTAG-HA SLC38A2” value in test [1] is “within five hours”.
